In patent US20160213651A1, “PIDOTIMOD FOR USE IN THE TREATMENT OF INFLAMMATION-ASSOCIATED DISEASES” (POLICHEM S.A., priority 2013, published 2016):
Square brackets hold non-standard residues; d marks the D form. Peptide text beside a SMILES is read from it. pGlu = O=C1CC[C@@H](C(=O)O)N1; Thz = O=C(O)[C@@H]1CSCN1

Assays:
[1] = test system: NLRP12; assay: NLRP12 mRNA expression in MonoMac 6 cells (transcriptional array, quantitative Real-Time PCR); format: cell-based, human
Description: (§1) 1. Culture of human monocytes. Peripheral blood mononuclear cells (PBMCs) were obtained by peripheral blood (freshly drawn or buffy coats). Monocytes were then derived from PBMCs by positive selection using anti-CD14 paramagnetic beads (Miltenyi Biotec) as described (Marini et al., 2008). Upon purification, cells were shortly cultured (from 24 to 72 hours) in complete culture medium (RPMI 1640 complemented with 10% of fetal bovine serum certified low endotoxin).
(§2) 2. Cell treatment with Pidotimod. PBMCs, purified primary human monocytes or MonoMac 6were treated with Pidotimod, at concentrations ranging from 1 to 25 μg/mL and, for different times. In some experiments, after 6 to 48 hours from the beginning of Pidotimod treatment, cells were washed and cultured for 6-24 hours in the presence and absence of TLR 1-9 optimal ligands (Human TLR1-9 Agonist kit, Invivogen).
(§3) 3. Evaluation of gene expression involved in Pidotimod activity. Upon stimulation, cells were harvested and total RNA was extracted using the RNAeasy mini kit (Qiagen). RNA was then retro-transcribed and subjected to amplification. Real-time PCR was performed using the “Human “RT2 Profiler PCR microarray kit” according to the manufacturer's protocol (SABbiosciences, Qiagen). […]
(§4) 5. […] Data obtained were analysed using the 2^−ΔΔCt method using Relative Quantification Study software (Applied Biosystems). […]

[2] = test system: NLRP12; assay: NLRP12 mRNA expression in primary monocytes from peripheral blood of healthy donors; format: cell-based, human; conditions: primary monocytes from 8 different subjects, 25 and 5 μg/ml (FIG. 2)
Description: as §1, §2, §3, §4

[3] = test system: NLRP12; assay: NLRP12 protein expression in Monomac6 by immunoprecipitation and immunoblotting; format: cell-based, human; conditions: Monomac6, 5 μg/ml, 36 hours, immunoblotting upon immunoprecipitation (FIG. 3)
Description: as §1, §2
(§5) 4. Immunoblot and immunoprecipitation assays. Cell lysates were prepared in lysis buffer containing a protease inhibitor cocktail (Roche). […] To detect the presence of cytoplasmic NLRP12, a first incubation with the goat polyclonal antibody to NLRP12 (Santa Cruz Biotechnology) was followed by the addiction of donkey-anti-goat-HRP secondary antibody. […]

[4] = test system: primary human monocytes; assay: mRNA of inflammatory mediators in primary human monocytes treated with TLR agonists; format: cell-based
Description: as §1, §2
5. Transcription array. The Pidotimod ability to reduce the inflammation induced by potent danger signals as LPS or other PAMPs was highlighted by evaluating the level of mRNA specific for effector inflammatory molecules. To this scope total RNA was extracted using the semiautomated extraction system NucliSens Easymag (Biomerieux). […] Data obtained were analysed using the 2^−ΔΔCt method using Relative Quantification Study software (Applied Biosystems). […]

[5] = test system: PBMCs and/or purified monocytes; assay: ELISA quantification of inflammatory molecules in cell supernatants after TLR stimulation; format: cell-based, human
Description: as §1, §2
6. ELISA for the quantification of proinflammatory molecules induced by TLR stimulation. The increase of cytokine synthesis is the signal of cellular response to TLR stimulation. Pidotimod disciplines the extent of inflammation by upregulating the expression of NLRP12 which reduces the amplification of inflammatory signals triggered by TLR activation. […] The presence of IL-6, IL-8, TNF-α, MCP-1 and IL-1β was quantified in the cultural medium through ELISA assays (Endogen).

[6] = test system: NLRP12; assay: NLRP12 downregulation induced in monocytes by TLR stimulation, Pidotimod pretreatment; format: cell-based, human; conditions: monocytes pretreated with Pidotimod
Description: as §1, §2, §5, §4

O=C1CC[C@@H](C(=O)N2CSC[C@H]2C(=O)O)N1 [Pidotimod, (4R)-3-(5-oxo-L-prolyl)-1,3-thiazolidine-4-carboxylic acid] ([pGlu]-[Thz]-OH)
NLRP12 mRNA increase as compared to unstimulated cells ([1]; 25 μg/ml, 16 hours of treatment, gene array confirmed by Real-Time PCR): two-fold | time of peak of increase in NLRP12 expression ([1]; 25 and 5 μg/ml, tested 6, 16, 24, 48 hours (FIG. 1)): 24 h | NLRP12 mRNA expression vs non-treated cells [2]: increase of NLRP12 mRNA expression | NLRP12 protein expression level vs untreated cells [3]: higher amount of NLRP12 protein | IL-6, IL-8, TNF-α and IL-1β mRNA induced by TLR agonists [4]: controls the production of these mediators at the transcriptional level | levels of specific MCP-1 (mRNA) induced by TLR agonists ([4]; 8 samples from 8 donors (FIG. 4)): consistently diminished | inflammatory molecules in cell supernatants by ELISA ([5]; purified monocytes, TLR stimulation): confirmed | inflammatory molecules by ELISA in total PBMC ([5]; total PBMC instead of purified monocytes): reproducible | NLRP12 expression at messenger level after TLR stimulation ([6]; representative TLR with optimal agonist (FIG. 5 left panel)): able to counteract the decrement of NLRP12 expression | NLRP12 expression at protein level after TLR stimulation ([6]; representative TLR with optimal agonist (FIG. 5 right panel)): able to counteract the decrement of NLRP12 expression
